Measured values taken from patent US20240270762A1, “PENICILLIN-BINDING PROTEIN INHIBITORS” (priority 2021, published 2024).
≈ marks a conversion by molar mass, not a printed value. Where two headings read alike, the source gives them in different places.

Assays:
N. gonorrhoeae FA1090 = test: Liquid broth MIC in Fastidious broth; settings: Neisseria gonorrhoeae
N. gonorrhoeae WHO G = test: Liquid broth MIC in Fastidious broth; settings: Neisseria gonorrhoeae
[1] = target: T1, PBP1a from Acinetobacter baumannii (ATCC 19606) (Acinetobacter baumannii, UniProt A0ABX6CK30); test: Bocillin-FL fluorescence polarization competition binding, A. baumannii PBP1a; settings: fluorescence polarization competition binding assay using Bocillin-FL; read-out: A. baumannii PBP1a Potency
T1 sequence (A0ABX6CK30 1-851): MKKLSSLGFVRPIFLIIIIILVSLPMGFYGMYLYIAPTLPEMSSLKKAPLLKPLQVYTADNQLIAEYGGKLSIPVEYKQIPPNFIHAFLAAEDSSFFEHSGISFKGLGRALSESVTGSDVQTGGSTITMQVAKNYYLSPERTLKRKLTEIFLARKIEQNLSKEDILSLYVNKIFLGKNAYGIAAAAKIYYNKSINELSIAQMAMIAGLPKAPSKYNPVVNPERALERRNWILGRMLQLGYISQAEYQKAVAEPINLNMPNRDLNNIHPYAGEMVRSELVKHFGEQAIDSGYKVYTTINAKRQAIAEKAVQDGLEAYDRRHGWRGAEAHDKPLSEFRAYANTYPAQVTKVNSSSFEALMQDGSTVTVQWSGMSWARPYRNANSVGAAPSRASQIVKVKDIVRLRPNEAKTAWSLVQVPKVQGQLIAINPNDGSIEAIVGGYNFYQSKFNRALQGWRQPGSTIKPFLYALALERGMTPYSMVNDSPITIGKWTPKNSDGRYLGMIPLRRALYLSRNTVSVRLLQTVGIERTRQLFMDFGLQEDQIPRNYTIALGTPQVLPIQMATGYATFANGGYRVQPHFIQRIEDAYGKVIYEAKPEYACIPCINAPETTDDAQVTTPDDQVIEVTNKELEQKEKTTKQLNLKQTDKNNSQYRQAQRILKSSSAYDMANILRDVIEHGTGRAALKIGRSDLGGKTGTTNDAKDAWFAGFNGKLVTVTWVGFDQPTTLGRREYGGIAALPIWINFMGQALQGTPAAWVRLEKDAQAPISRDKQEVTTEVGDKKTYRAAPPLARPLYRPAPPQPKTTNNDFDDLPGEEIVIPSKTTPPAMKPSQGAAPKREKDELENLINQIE
Procedure, shortened: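 Purified PBPs pre-incubated with inhibitor (E. coli PBP3 1.5 μM, 30 min; P. aeruginosa PBP3 0.75 μM, A. baumannii PBP1a 1 μM and PBP3 0.2 μM, 15 min), then Bocillin-FL 0.1 μM (0.05 μM for PBP1a) added; FP read up to 60 min. EC50 = concentration halving bound Bocillin-FL.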

N. gonorrhoeae WHO Z = test: Liquid broth MIC in Fastidious broth; settings: Neisseria gonorrhoeae
P. aeruginosa ATCC 27853 = test: microbe, parasite or virus in culture; assay type: cell-based; settings: Pseudomonas aeruginosa, ATCC27853, read-out: Minimum inhibitory concentration, P. aeruginosa ATCC 27853
[2] = FA1090, read-out: Minimum Inhibitory Concentration, FA 1090
[3] = read-out: Minimum Inhibitory Concentration, WHO G
[4] = read-out: Minimum Inhibitory Concentration, WHO Z

SMILES	MIC (N. gonorrhoeae FA1090; FA1090, read-out: Minimum Inhibitory Concentration (MIC), N. gonorrhoeae FA 1090)	MIC (N. gonorrhoeae WHO G; read-out: Minimum Inhibitory Concentration (MIC), N. gonorrhoeae WHO G)	IC50 [1]	MIC (N. gonorrhoeae WHO Z; read-out: Minimum Inhibitory Concentration (MIC), N. gonorrhoeae WHO Z)	MIC (P. aeruginosa ATCC 27853)	MIC (N. gonorrhoeae FA1090; [2])	MIC (N. gonorrhoeae WHO G; [3])	MIC (N. gonorrhoeae WHO Z; [4])
O=C(NCCN1CCN(C(=O)NC(C(=O)N[C@H]2Cc3ccc(F)c(C(=O)O)c3OB2O)c2cc(F)c(O)c(O)c2Cl)C1=O)c1ccncc1 (stereo partly drawn) [Example 245, (3R)-3-(2-(2-chloro-5-fluoro-3,4-dihydroxyphenyl)-2-(3-(2-(isonicotinamido)ethyl)-2-oxoimidazolidine-1-carboxamido)acetamido)-7-fluoro-2-hydroxy-3,4-dihydro-2H-benzo[e][1,2]oxaborinine-8-carboxylic acid]	4 to 8 mg/L (≈ 5.69 to 11.4 µM)	16 to 32 mg/L (≈ 22.8 to 45.5 µM)	> 250 µM	> 64 mg/L	2 to 4 mg/L (≈ 2.85 to 5.69 µM)			
O=C(NCCN1CCN(C(=O)NC(C(=O)N[C@H]2Cc3ccc(F)c(C(=O)O)c3OB2O)c2cc(F)c(O)c(O)c2Cl)C1=O)c1cccnc1 (stereo partly drawn) [Example 246, (3R)-3-(2-(2-chloro-5-fluoro-3,4-dihydroxyphenyl)-2-(3-(2-(nicotinamido)ethyl)-2-oxoimidazolidine-1-carboxamido)acetamido)-7-fluoro-2-hydroxy-3,4-dihydro-2H-benzo[e][1,2]oxaborinine-8-carboxylic acid]			> 250 µM		2 to 4 mg/L (≈ 2.85 to 5.69 µM)	4 to 8 mg/L (≈ 5.69 to 11.4 µM)	16 to 32 mg/L (≈ 22.8 to 45.5 µM)	16 to 32 mg/L (≈ 22.8 to 45.5 µM)
O=C(NCCN1CCN(C(=O)NC(C(=O)N[C@H]2Cc3ccc(F)c(C(=O)O)c3OB2O)c2cc(F)c(O)c(O)c2Cl)C1=O)c1nccs1 (stereo partly drawn) [Example 247, (3R)-3-(2-(2-chloro-5-fluoro-3,4-dihydroxyphenyl)-2-(2-oxo-3-(2-(thiazole-2-carboxamido)ethyl)imidazolidine-1-carboxamido)acetamido)-7-fluoro-2-hydroxy-3,4-dihydro-2H-benzo[e][1,2]oxaborinine-8-carboxylic acid]			> 250 µM		2 to 4 mg/L (≈ 2.82 to 5.64 µM)	4 to 8 mg/L (≈ 5.64 to 11.3 µM)	16 to 32 mg/L (≈ 22.6 to 45.1 µM)	16 to 32 mg/L (≈ 22.6 to 45.1 µM)
O=C(O)c1c(F)ccc2c1OB(O)[C@@H](NC(=O)C(NC(=O)N1CCN(CCNC(=O)[C@@H]3CCCN3)C1=O)c1cc(F)c(O)c(O)c1Cl)C2 (stereo partly drawn) [Example 248, (3R)-3-(2-(2-chloro-5-fluoro-3,4-dihydroxyphenyl)-2-(2-oxo-3-(2-((S)-pyrrolidine-2-carboxamido)ethyl)imidazolidine-1-carboxamido)acetamido)-7-fluoro-2-hydroxy-3,4-dihydro-2H-benzo[e][1,2]oxaborinine-8-carboxylic acid]			> 250 µM		2 to 4 mg/L (≈ 2.88 to 5.76 µM)	4 to 8 mg/L (≈ 5.76 to 11.5 µM)	16 to 32 mg/L (≈ 23 to 46.1 µM)	16 to 32 mg/L (≈ 23 to 46.1 µM)
O=C(NCCN1CCN(C(=O)NC(C(=O)N[C@H]2Cc3ccc(F)c(C(=O)O)c3OB2O)c2cc(F)c(O)c(O)c2Cl)C1=O)Nc1ccncc1 (stereo partly drawn) [Example 250, (3R)-3-(2-(2-chloro-5-fluoro-3,4-dihydroxyphenyl)-2-(2-oxo-3-(2-(3-(pyridin-4-yl)ureido)ethyl)imidazolidine-1-carboxamido)acetamido)-7-fluoro-2-hydroxy-3,4-dihydro-2H-benzo[e][1,2]oxaborinine-8-carboxylic acid]			> 250 µM		2 to 4 mg/L (≈ 2.79 to 5.57 µM)	4 to 8 mg/L (≈ 5.57 to 11.1 µM)	> 64 mg/L	> 64 mg/L
O=C(NCCN1CCN(C(=O)NC(C(=O)N[C@H]2Cc3ccc(F)c(C(=O)O)c3OB2O)c2cc(F)c(O)c(O)c2Cl)C1=O)Nc1cccnc1 (stereo partly drawn) [Example 251, (3R)-3-(2-(2-chloro-5-fluoro-3,4-dihydroxyphenyl)-2-(2-oxo-3-(2-(3-(pyridin-3-yl)ureido)ethyl)imidazolidine-1-carboxamido)acetamido)-7-fluoro-2-hydroxy-3,4-dihydro-2H-benzo[e][1,2]oxaborinine-8-carboxylic acid]			> 250 µM		< 1 mg/L	4 to 8 mg/L (≈ 5.57 to 11.1 µM)	16 to 32 mg/L (≈ 22.3 to 44.6 µM)	16 to 32 mg/L (≈ 22.3 to 44.6 µM)
O=C(NCCCN1CCN(C(=O)N[C@H](C(=O)N[C@H]2Cc3ccc(F)c(C(=O)O)c3OB2O)c2cc(F)c(O)c(O)c2Cl)C1=O)c1ccccc1 [Example 252, (R)-3-((S)-2-(3-(3-benzamidopropyl)-2-oxoimidazolidine-1-carboxamido)-2-(2-chloro-5-fluoro-3,4-dihydroxyphenyl)acetamido)-7-fluoro-2-hydroxy-3,4-dihydro-2H-benzo[e][1,2]oxaborinine-8-carboxylic acid]			> 250 µM		> 128 mg/L	> 64 mg/L	> 64 mg/L	> 64 mg/L
O=C(NCCCN1CCN(C(=O)N[C@@H](C(=O)N[C@H]2Cc3ccc(F)c(C(=O)O)c3OB2O)c2cc(F)c(O)c(O)c2Cl)C1=O)c1ccccc1 [Example 253, (R)-3-((R)-2-(3-(3-benzamidopropyl)-2-oxoimidazolidine-1-carboxamido)-2-(2-chloro-5-fluoro-3,4-dihydroxyphenyl)acetamido)-7-fluoro-2-hydroxy-3,4-dihydro-2H-benzo[e][1,2]oxaborinine-8-carboxylic acid]			> 250 µM		2 to 4 mg/L (≈ 2.79 to 5.59 µM)	1 to 2 mg/L (≈ 1.4 to 2.79 µM)	16 to 32 mg/L (≈ 22.4 to 44.7 µM)	16 to 32 mg/L (≈ 22.4 to 44.7 µM)
O=C(NCCCN1CCN(C(=O)N[C@H](C(=O)N[C@H]2Cc3ccc(F)c(C(=O)O)c3OB2O)c2cc(F)c(O)c(O)c2Cl)C1=O)c1cccc(O)c1 [Example 254, (R)-3-((S)-2-(2-chloro-5-fluoro-3,4-dihydroxyphenyl)-2-(3-(3-(3-hydroxybenzamido)propyl)-2-oxoimidazolidine-1-carboxamido)acetamido)-7-fluoro-2-hydroxy-3,4-dihydro-2H-benzo[e][1,2]oxaborinine-8-carboxylic acid]			> 250 µM		> 128 mg/L	> 64 mg/L	> 64 mg/L	> 64 mg/L
O=C(NCCCN1CCN(C(=O)N[C@@H](C(=O)N[C@H]2Cc3ccc(F)c(C(=O)O)c3OB2O)c2cc(F)c(O)c(O)c2Cl)C1=O)c1cccc(O)c1 [Example 255, (R)-3-((R)-2-(2-chloro-5-fluoro-3,4-dihydroxyphenyl)-2-(3-(3-(3-hydroxybenzamido)propyl)-2-oxoimidazolidine-1-carboxamido)acetamido)-7-fluoro-2-hydroxy-3,4-dihydro-2H-benzo[e][1,2]oxaborinine-8-carboxylic acid]			> 250 µM		< 1 mg/L	1 to 2 mg/L (≈ 1.37 to 2.73 µM)	4 to 8 mg/L (≈ 5.47 to 10.9 µM)	16 to 32 mg/L (≈ 21.9 to 43.7 µM)
O=C(NCCCN1CCN(C(=O)NC(C(=O)N[C@H]2Cc3ccc(F)c(C(=O)O)c3OB2O)c2cc(F)c(O)c(O)c2Cl)C1=O)c1ccncc1 (stereo partly drawn) [Example 256, (3R)-3-(2-(2-chloro-5-fluoro-3,4-dihydroxyphenyl)-2-(3-(3-(isonicotinamido)propyl)-2-oxoimidazolidine-1-carboxamido)acetamido)-7-fluoro-2-hydroxy-3,4-dihydro-2H-benzo[e][1,2]oxaborinine-8-carboxylic acid]			> 250 µM		2 to 4 mg/L (≈ 2.79 to 5.58 µM)	4 to 8 mg/L (≈ 5.58 to 11.2 µM)	16 to 32 mg/L (≈ 22.3 to 44.6 µM)	16 to 32 mg/L (≈ 22.3 to 44.6 µM)
O=C(NCCCN1CCN(C(=O)NC(C(=O)N[C@H]2Cc3ccc(F)c(C(=O)O)c3OB2O)c2cc(F)c(O)c(O)c2Cl)C1=O)c1nccs1 (stereo partly drawn) [Example 257, (3R)-3-(2-(2-chloro-5-fluoro-3,4-dihydroxyphenyl)-2-(2-oxo-3-(3-(thiazole-2-carboxamido)propyl)imidazolidine-1-carboxamido)acetamido)-7-fluoro-2-hydroxy-3,4-dihydro-2H-benzo[e][1,2]oxaborinine-8-carboxylic acid]			> 250 µM		2 to 4 mg/L (≈ 2.77 to 5.53 µM)	4 to 8 mg/L (≈ 5.53 to 11.1 µM)	> 64 mg/L	16 to 32 mg/L (≈ 22.1 to 44.3 µM)
